In US8664400B2, “Triphenylamine derivatives useful as fluorophores in biology, in particular for two-photon microscopy” (Centre National de la Recherche Scientifique, priority 2006, dated 2014):
Like-named read-outs stand apart in the source and are kept apart here.

What was measured:
[1] = 36 μM, 20° C.; cited from earlier work
[2] = Photostability under irradiation with a 150 W xenon-mercury lamp; assay type: physicochemical; details: about thirty minutes
[3] = according to the literature; cited from earlier work
[4] = Two-photon absorption by two-photon-induced fluorescence (TPIF); assay type: physicochemical
Procedure: (§1) The two-photon absorption properties of the compounds according to the invention were assessed using the two-photon-induced fluorescence (TPIF) technique and by means of a Titanium:Sapphire femtosecond laser source with pulses of 90 fs to 76 MHz which can be tuned to 750-840 nm.

herring testis DNA = assay: Two-photon absorption (TPIF) in the presence of DNA; assay type: physicochemical; details: for two-photon spectra in presence of DNA compared with glycerol: sodium cacodylate buffer 10 mM, pH 7.3, 5 equivalents herring testis DNA, all excitation wavelengths
Procedure: as §1

[5] = test system: duplex DNA of 26 base pairs of self-complementary sequence (ds26); assay: Single-photon absorption and fluorescence emission in the presence of DNA; assay type: binding; details: for ΦF (quantum fluorescence yield) / ε / λabs. / λem.: DNA
ds26 DNA = assay: Affinity for DNA by fluorometric titration; assay type: binding; details: 10 mM sodium cacodylate buffer, pH 7.0, 100 mM NaCl
[6] = Emission and single-photon absorption properties in glycerol or sodium cacodylate buffer; assay type: physicochemical
CHO K1 cells = assay: Epifluorescence and confocal microscopy of fixed, treated cells; assay type: cell-based, Chinese hamster
Procedure: The CHO-K1 cells, cultured beforehand in wells, on glass supports coated with polyornithine, containing a commercially available standard culture medium, were fixed using a formaldehyde (4%) solution in PBS.
The cells were then incubated, at room temperature and for 20 minutes, in the presence of the markers or mixtures of markers to be tested (in aqueous solution) and then washed with PBS buffer (13 mM NaCl, 0.27 mM KCl, 0.15 mM KH2PO4, 0.8 mM Na2HPO4, pH 7.4) in order to remove the excess marker. […] The cells were then prepared conventionally for microscopic examination.
Epifluorescence microscopy examinations were carried out with a Nikon Eclipse E 800 microscope fitted with a 60× (1.4) lens and a Nikon DXM 1200 digital apparatus, while the confocal microscopy examinations were carried out with a Leica DM6000 microscope comprising an SP2 unit equipped with a 63× (1.4) lens and an HeNe laser for excitation of the markers.

[7] = 10 mM sodium cacodylate, pH 7.0, 5 μM compound, 0.5 to 5 equivalents ds26

| Compound | two-photon spectra in presence of DNA compared with glycerol (herring testis DNA) | hypochromism caused by the presence of DNA [5, 7] | ΦF (quantum fluorescence yield) [5] | ε [5] | λabs. [5] | λem. [5] | ε ([6]; Na cacodyl.) | λabs. ([6]; Na cacodyl.) | ΦF (quantum fluorescence yield) ([6]; glyc.) | ε ([6]; glyc.) | λabs. ([6]; glyc.) | λem. ([6]; glyc.) | other results |
| --- | --- | --- | --- | --- | --- | --- | --- | --- | --- | --- | --- | --- | --- |
| CN1C(=Cc2cc[n+](C)c3ccccc23)Sc2ccccc21 [thiazole orange] |  |  |  |  |  |  |  |  |  |  |  |  | form in aqueous medium (aggregation) [1]: in the form of dimers |
| CN1C(=CC=Cc2cc[n+](CCC[N+](C)(C)C)c3ccccc23)Sc2ccccc21.[I-].[I-] [TO-PRO-3, 1-(N,N,N-trimethylaminopropyl)-4-{2-[3-methyl-2,3-dihydro-(benzo-1,3-thiazole)-2-ethylidene]vinyl}quinolinium iodide, reference compound] |  |  |  |  |  |  |  |  |  |  |  |  | decrease of fluorescence emission during irradiation [2]: more than 40% |
| C(=Cc1ccc(N(c2ccc(C=Cc3ccncc3)cc2)c2ccc(C=Cc3ccncc3)cc2)cc1)c1ccncc1 [tris[4-(2-pyridin-4-ylvinyl)phenyl]amine, reference compound] |  |  |  |  |  |  |  |  |  |  |  |  | efficient two-photon absorption section [3]: 58 GM; two-photon excitation maximum ([4]; in dichloromethane): around 820 nm; efficient two-photon absorption section ([4]; measurements performed by the Inventors, in dichloromethane): 90 GM |
| C[n+]1ccc(C=Cc2ccc(N(c3ccccc3)c3ccc(C=Cc4cc[n+](C)cc4)cc3)cc2)cc1.[I-].[I-] [TP-2Py, Bis[4-(2-N-methylpyridinium-4-ylvinyl)phenyl]phenylamine iodide] | identical to those previously observed in glycerol | about 20% | 0.07 | 31 400 L/mol · cm | 509 nm | 665 nm | 39 800 L/mol · cm | 474 nm | 0.112 | 37 400 L/mol · cm | 491 nm | 656 nm | δ (efficient two-photon absorption section) (herring testis DNA; DNA): 200 GM; shift of absorption spectra caused by the presence of DNA [5, 7]: shift towards the red region; δ (efficient two-photon absorption section) ([4]; glyc.): 315 GM; wavelength of relative maximum of two-photon absorption ([4]; in glycerol): ~820 nm; dissociation constant Kd (ds26 DNA): of the order of the micromolar; molar extinction coefficient (ε) ([6]; in glycerol, at 474 nm): 37 400 L/mol·cm |
| C[n+]1ccc(C=Cc2ccc(N(c3ccc(C=Cc4cc[n+](C)cc4)cc3)c3ccc(C=Cc4cc[n+](C)cc4)cc3)cc2)cc1.[I-].[I-].[I-] [TP-3Py, Tris[4-(2-N-methylpyridinium-4-ylvinyl)phenyl]amine iodide] | identical to those previously observed in glycerol | about 20% | 0.021 | 51 000 L/mol · cm | 499 nm | 684 nm | 59 000 L/mol · cm | 474 nm | 0.123 | 66 000 L/mol · cm | 491 nm | 665 nm | effect of irradiation on fluorescence emission [2]: scarcely modified; image quality of chromosomes (CHO K1 cells; CHO K1 cells in mitosis, 2 μM, phase contrast and confocal microscopies coupled): very high degree of sharpness and a high resolution; location of fluorescence in cells (CHO K1 cells; fixed CHO K1 cells, 2 μM compound with DAPI 3 μM, 20 minutes, epifluorescence microscopy): located exclusively in the nucleus; stability at the focal point of the microscope lens (CHO K1 cells; fixed CHO K1 cells, 2 μM, epifluorescence microscopy): very stable |
